# How the values were obtained:
# [1] = 40 mg/mL M4N/PEG 300 stability, RP-HPLC analysis; assay type: physicochemical; details: for M4N: 40 mg/mL M4N/PEG 300
# Method: (§1) The stability of 40 mg/mL M4N dissolved in 100% PEG 300 was evaluated up to 24 hours incubation at 30° C., 45° C. and 60° C. A stock 40 mg/mL M4N in PEG 300 was prepared at 60° C., following the procedure set forth in Example 18. Subsequently, aliquots were removed and incubated at the appropriate temperature. Samples were rotated at 450 rpm during the entire course of incubation. Visual observations and RP-HPLC data were collected throughout. […] The formation of crystals coincided with a loss of soluble M4N (Table 30). The 40 mg/mL M4N/PEG 300 samples incubated at 45° C. and 60° C. were stable after 24 hours incubation as assessed by visual observations and RP-HPLC analysis (Tables 29 and 30).
# [2] = Human Phase 0 three-way crossover microdose pharmacokinetic study of 14C-labelled M4N, AMS; assay type: in vivo; details: for F: bioavailability of oral dose compared to IV dose; for Tmax: intravenous dose
# Method: This study was designed to assess the absorption of M4N when administered to humans as a sub-therapeutic dose either as a single oral dose under fed and fasted conditions or a single intravenous dose (Regimens A-C, respectively, in Table 24). The study was a three-way crossover study design in a target population of healthy male subjects and consisted of three study periods of approximately 35 hours duration, each separated by a minimum period of at least 7 days between dosing. During the course of each study period, pharmacokinetic blood samples were taken at specified time points after dosing and urine was collected over pre-defined time intervals. The subjects were able to leave the clinical unit after the completion of study specific procedures at 24 hours post-dose.
# In this study, M4N was administered to humans in a 100 μg quantity. M4N was lightly-labelled with ^14C (3.3 kBq per 100 μg) and administered to healthy volunteers. Each oral administration of M4N consisted of 0.1 mg of ^14C labeled M4N and 376.8 mg of glycerol monooleate in a size 0 gelatin capsule. The single intravenous infusion of M4N consisted of 0.1 mg/mL ^14C labelled M4N, 30% (w/v) HP-β-CD, and 25% (v/v) PEG diluted with water to 1 mL for bolus injection. Following collection of blood and urine from each subject, samples were analyzed for ^14C content using Accelerator Mass Spectrometry (AMS) to determine the maximum concentration of M4N (Cmax) that occurred at time Tmax, the overall area under the curve (AUC) that corresponds to the overall absorption of M4N at the times of testing (AUC0-t) and overall (AUC0-∞), the terminal half-life (T1/2) of each sample and the relative and overall bioavailability (Frel and F), of the oral dose of M4N compared to the IV dose of M4N. The baseline levels of M4N were corrected for any residual M4N remaining in the subjects following the periods between dosing so as not to inflate the levels of M4N for any subsequent dosing.
# [3] = Oral (gavage) repeated dose pharmacokinetic study of M4N in ten excipient formulations; details: rat, in vivo, 500 mg/kg
# Method: The purpose of this study was to provide information on pharmacokinetics of a 500 mg/kg dose of M4N in ten different excipient formulations. […] Crl:(CD)SD male and female rats were assigned to ten dosage groups, five rats per sex per group. Samples were prepared having carriers as follows that were administered to the following groups of subjects:
# Each formulation of M4N was administered orally via gavage on three occasions. The concentration of the M4N was 60 mg/mL administered at a dosage volume 8.33 mL/kg, based on the most recent body weight. The rats were given the first dose (day 1 of study) after being fasted overnight followed by a 72 hour washout (recovery) period. On day 5 of study (DS 5), the second dose of test article was administered to non-fasted rats followed by a one week washout (recovery) period. On DS 6, the rats were placed on a high fat diet (approximately 10% fat content versus approximately 5% in a standard diet). […] These observations were also recorded once daily on non dosing days and during the post dosage period. Body weights were recorded at least weekly during the acclimation period, daily during the dosage and at sacrifice terminal weight. Feed consumption values were recorded weekly during the dosage period and at sacrifice (feed left value). […] The time of each blood collection was recorded in the raw data. […]
# [4] = dog, in vivo, iv, 75 mg/kg
# [5] = Oral fed/fasted IV/oral pharmacokinetic comparison of M4N formulations, single 75 mg/kg dose; details: dogs, single 75 mg/kg oral or IV
# [6] = 40 mg/mL M4N/PEG 300 stability, visual appearance; assay type: physicochemical; details: for Visual Appearance: 40 mg/mL M4N/PEG 300
# Method: as §1
# [7] = human, 100 μg, total 14C plasma
# [8] = human, oral and intravenous 100 μg
compound,measurement,setting,value
"COc1ccc(C[C@@H](C)[C@@H](C)Cc2ccc(OC)c(OC)c2)cc1OC [Formulation M4N, meso-1,4-bis(3,4-dimethoxyphenyl)-2,3-dimethylbutane]",amount or types of impurities peaks,"[1]; 40 mg/mL M4N/PEG 300, 30° C., 45° C. and 60° C.",No changes
same,stability by visual observations and RP-HPLC analysis,"[1]; 40 mg/mL M4N/PEG 300, 24 hours at 45° C.",stable
same,stability by visual observations and RP-HPLC analysis,"[1]; 40 mg/mL M4N/PEG 300, 24 hours at 60° C.",stable
same,M4N,"[1]; 30° C., 0 hours",39.5 mg/mL
same,M4N,"[1]; 30° C., 2 hours",40.8 mg/mL
same,M4N,"[1]; 30° C., 6 hours",40.6 mg/mL
same,M4N,"[1]; 30° C., 24 hours",37.4 mg/mL
same,M4N,"[1]; 45° C., 2 hours",40.4 mg/mL
same,M4N,"[1]; 45° C., 6 hours",39.8 mg/mL
same,M4N,"[1]; 45° C., 24 hours",40.6 mg/mL
same,M4N,"[1]; 60° C., 2 hours",39.1 mg/mL
same,M4N,"[1]; 60° C., 6 hours",39.2 mg/mL
same,M4N,"[1]; 60° C., 24 hours",39.2 mg/mL
same,F,"[2]; Regimen A (oral, fed): 100 μg single oral dose following a high fat breakfast, 14C, baseline corrected, mean ± SD",91.2 ± 19.1%
same,F,"[2]; Regimen B (oral, fasted): 100 μg single oral dose following an overnight fast, 14C, baseline corrected, mean ± SD",122.1 ± 14.5%
same,AUC0-t oral dose in fasted subjects compared with the intravenous dose,[2]; [7],slightly higher
same,AUC0-t oral dose in fed subjects compared with the intravenous dose,[2]; [7],slightly lower
same,apparent absorption following oral administration,"[2]; human, fed and fasted state",very high
same,Tmax,"[2]; human, eight of the ten subjects (first sampling time)",4.8 min
same,Tmax,"[2]; human, two subjects",10.2 min
same,AUC0-t in fed subjects compared with fasted subjects,"[2]; human, oral 100 μg",generally lower
same,"Tmax, generally","[2]; human, oral 100 μg, fasted subjects",60 min
same,adverse events,[2]; [8],no serious or severe adverse events
same,tolerability,[2]; [8],well tolerated
same,vital signs or ECGs,[2]; [8],No clinically significant changes
same,Frel,"[2]; relative bioavailability, Regimen A (oral, fed): 100 μg single oral dose following a high fat breakfast, 14C, baseline corrected, mean ± SD",75.1 ± 16.2%
same,Blood levels on high fat diet versus standard diet or fasting,[3],always higher
same,Clinical observations,[4],"diarrhea, emesis, and ataxia"
same,survival,[5],All animals survived
same,visual observation,"[6]; 40 mg/mL M4N/PEG 300, 6 hours at 30° C.",tiny crystals
same,visual observation,"[6]; 40 mg/mL M4N/PEG 300, 24 hours at 30° C.",even more crystals
same,Visual Appearance,"[6]; 30° C., 2 hours",Clear
same,Visual Appearance,"[6]; 30° C., 4 hours",Clear
same,Visual Appearance,"[6]; 30° C., 6 hours",Few tiny
same,Visual Appearance,"[6]; 30° C., 24 hours",Many tiny
same,Visual Appearance,"[6]; 45° C., 2 hours",Clear
same,Visual Appearance,"[6]; 45° C., 4 hours",Clear
same,Visual Appearance,"[6]; 45° C., 6 hours",Clear
same,Visual Appearance,"[6]; 45° C., 24 hours",Clear
same,Visual Appearance,"[6]; 60° C., 2 hours",Clear
same,Visual Appearance,"[6]; 60° C., 4 hours",Clear
same,Visual Appearance,"[6]; 60° C., 6 hours",Clear
same,Visual Appearance,"[6]; 60° C., 24 hours",Clear

# Reference: patent US20090022803A1, “Oral Formulations For Delivery of Catecholic Butanes Including Ndga Compounds” (priority 2005, published 2009)
